Measured values: patent publication US12331121B2, “Efflux pump-cancer antigen multi-specific antibodies and compositions, reagents, kits and methods related thereto” (William Robert Arathoon Living Trust Dated August 29, 2016, priority 2019, dated 2025)

Columns and labels:
NALM6 ADR cells = system: NALM6 ADR cells
Source text: Cells: NALM6 (ATCC) and NALM6 ADR (ATCC), B cell precursor lymphoblastic leukemia cell lines used in this study. NALM6 ADR is a multidrug resistant cell line derived from NALM6 cells.
Mice: Sixty-five 5-6-weeks-old female SCID-Beige mice (Charles River) were used in this study.
Inoculation-2×10^6 cells diluted in PBS:Matrigel (1:1) were subcutaneously injected using a 27G insulin syringe into fifty anesthetized 5-6-week-old female SCID-Beige mice under sterile conditions.
NALM6 ADR subcutaneous tumors: Mice were randomized into nine groups of five mice each—(i) Control isotype IgG1 15 mg/kg, (ii) Control isotype IgG1 15 mg/kg and 5 mg/kg of paclitaxel, (iii) Control isotype IgG1 15 mg/kg and 20 mg/kg of paclitaxel, (iv) BisP1.1 15 mg/kg, (v) BisP1.1 15 mg/kg and 5 mg/kg of paclitaxel, (vi) BisP1.1 15 mg/kg and 20 mg/kg of paclitaxel (vii) Valspodar 20 mg/kg (viii) Valspodar 20 mg/kg and 5 mg/kg of paclitaxel and (ix) Valspodar 20 mg/kg and […]. Antibody, Valspodar and paclitaxel were dosed intraperitoneally twice a week for four consecutive weeks. Antibody/valspodar were injected at least 4 hours prior to paclitaxel injection. Paclitaxel preparation: Since paclitaxel is poorly soluble, a master stock of 50 mg/ml was prepared in absolute ethanol:Kolliphor (1:1). Prior to injection the stock was diluted to recommended doses of 5 mg/kg or 20 mg/kg with PBS maintaining a ratio of (1:16).
Measurements: Tumor measurements were done thrice a week using a calibrated Vernier Caliper and tumor volume calculated as per the formula ½*L*S*S where L is the long axis and s is the short axis of the tumor. Body weights were recorded before treatment started and were continuously monitored throughout the study. Animal survival was evaluated from the first day of treatment until death. To avoid suffering, mice were euthanized when turning moribund according to the above-mentioned predefined criteria: rapid weight loss, loss of ability to ambulate, labored respiration, or inability to drink or feed.
Statistics: Tumor volume and body weights were compared between different experimental groups using exact one-way analysis of variance (ANOVA). Kaplan-Meier survival curves were compared between different treatment groups using the log-rank (Mantel-Cox) test. Statistical analyses were performed using Graph Pad Prism (GraphPad, San Diego, CA, USA) software. The level of significance was set at p<0.05 for all analyses.

[1] = system: 293 KT14-KO and KPB1-KD cells; test: FACS binding to cells with only one target present; parameters: species or system human; conditions: CD47 knock-out or Pgp knock-down 293T cells, FIG. 4
Procedure: In FIG. 4A-4B, the binding of the bispecific antibody is shown by FACS analysis against a variety of cell lines. The first scan (left panel in FIG. 4A and FIG. 4B) illustrates binding of the antibody to cells co-expressing both targets, (Pgp and CD47). […] FIG. 4A-4B further show binding with titrated antibody concentrations of 600 nM, 200 nM, 66 nM, 7.4 nM and 2 nM, with the signal measured from isotype and no antibody control also provided. The respective antibody concentrations are indicated in the left panel of FIG. 4A and FIG. 4B, and the measured signal from these different concentrations are generally overlapping in the middle and right panels of FIGS. 4A and 4B. FIG. 4A and FIG. 4B represent results obtained from two different batches of antibody.

N6ADR cells = test: Paclitaxel sensitization of N6ADR cells in vitro; format: cell-based, human; conditions: FIG. 5, 6; compared to chemo only
Procedure: HEK 293T, MCF-7, N6ADR and SKNF7 cell lines expressing Pgp were obtained from the American Type Culture Collection. N6/ADR cells is also referred to as NALM6/ADR cells. All cell lines and lines derived from them were maintained in RPMI 1640 or DMEM supplemented with up to 10% fetal bovine serum (Sigma), nonessential amino acids, and 2 mmol/L L-glutamine at 37° C. and 5% CO2 in a humidified incubator (unless otherwise indicated). Cells were used as supplied or were modified to overexpress (Ox) Pgp or were subject to having Pgp expression knocked down (KD) with lentiviral-mediated short hairpin RNA or knock out (KO) of the functional CD47 gene by CRISPR/Cas-mediated knock out technology essentially as described (Cong, L. et al. (2013) Science 339, 819-823). For vincristine and paclitaxel IC50 determination, cells were plated in normal growth medium and allowed to adhere overnight. Paclitaxel or vincristine (Sigma) were added in a dilution series and any modulators were added within ranges of 0 to 500 μM/L. Cell viability was measured 72 h later using the Celltiter-Glo Luminescent Cell Viability Assay (Promega).
FIG. 5 and FIG. 6A-6C illustrate the enhanced killing of cells, by the antineoplastic agent paclitaxel, when cells are bound by the 15D3.aCD47:MRK16 bispecific antibody (highlighted with arrows).

HeyT30 cells = test: HeyT30 tumors in mice; format: in vivo; conditions: FIG. 19
Source text: The BisP1.1 bispecific antibody was efficacious against two additional multidrug resistant (MDR) cancer cell lines in xenograft studies. The A2780ADR MDR cancer cell line expresses both CD47 and ABCB1. The HeyT30 MDR cancer cell line also expresses both CD47 and ABCB1 but at a lower level compared to A2780ADR cells (FIGS. 16 and 17). Both the A2780ADR and the HeyT30 cell lines are of ovarian origin. PE-conjugated, commercially available anti-MDR1 and anti-CD47 reagent antibodies were used; for MDR1, Biolegend Cat. No. 348606 and, CD47, Biolegend Cat. No. 323108.
A2780ADR MDR cancer cell line and HeyT30 MDR cancer cell line were injected into mice according to protocols described in Example 3. Mice were treated with BisP1.1 bispecific antibody with or without paclitaxel.

[2] = system: human red blood cells (RBCs); test: Binding to human erythrocytes; conditions: FIG. 22A; in contrast to anti-CD47 5F9

## KBisP1.1: bispecific anti-MDR1/anti-CD47 antibody: 15D3 heavy chain, 5F9 (KT14) heavy chain, common MRK16 light chain, human IgG1
NALM6 ADR cells; 15 mg/kg i.p. twice a week
  tumor growth, agent alone: strong inhibition of tumor growth
NALM6 ADR cells; BisP1.1 15 mg/kg or valspodar 20 mg/kg with paclitaxel 5 or 20 mg/kg
  tumor growth in combination with paclitaxel: significantly reduced tumor growth
NALM6 ADR cells; valspodar with paclitaxel 20 mg/kg, BisP1.1 alone or plus paclitaxel, compared to control
  survival: prolonged survival
[1]
  FACS binding when only one of the targets is present: does not show significant binding
[1]; listed as HC-15D3:HC-5F9:LC-MRK16
  FACS binding when only one of the targets is present: significantly reduced binding
N6ADR cells
  sensitivity of N6ADR cells to paclitaxel: enhanced
HeyT30 cells; higher concentration of the antibody
  tumor volume: efficacious with and without paclitaxel
HeyT30 cells; lower concentration of the antibody
  tumor volume: efficacious in reducing HeyT30 MDR cancer cell tumor volume with paclitaxel
[2]
  binding to human erythrocytes: no significant binding
